Assay results published in US8541427B2, “Phenyl-substituted 2-imino-3-methyl pyrrolo pyrimidinone compounds as BACE-1 inhibitors, compositions, and their use” (Merck, Sharp & Dohme, Corp., priority 2008, dated 2013).
Like-named read-outs stand apart in the source and are kept apart here.

Experiments:
CYP3A4 = CYP3A4 (Homo sapiens (Human), UniProt P08684); assay: CYP Inhibition Assay, CYP3A4; type: in vitro ADME; settings: human liver microsomes;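 also: CYP probe substrate held near its Km, inhibition judged from metabolite formation quantified by LC-MS/MS against a standard curve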
[1] = molecular target: soluble human BACE1 catalytic domain (Homo sapiens (Human), UniProt P56817); assay: BACE1 HTRF FRET Assay; type: biochemical; settings: Ki calculated from IC50 with Cheng-Prusoff equation;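 also: cleavage of a quenched APP Swedish mutant peptide (QSY7 quencher, Europium donor) measured as rise in 620 nm fluorescence after 1.5 h at 30 °C, inhibition suppresses signal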
hERG [2] = molecular target: T1, hERG (Homo sapiens (Human), UniProt Q12809); assay: hERG screening, IonWorks Quattro (hERG L929 cells); type: cell-based; settings: L929 cells expressing hERG; for inhibition at 5 min, 1 uM: read-out: HERG Ionworks % Inhib 1 uM; for inhibition at 5 min, 10 uM: read-out: HERG Ionworks % Inhib 10 uM
CYP2C9 = CYP2C9 (Homo sapiens (Human), UniProt P11712); assay: CYP Inhibition Assay, CYP2C9; type: in vitro ADME; settings: human liver microsomes;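 also: probe substrate held close to its Km, with metabolite formation quantified by LC-MS/MS against a calibration curve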
human liver Cathepsin D = human liver Cathepsin D (Homo sapiens (Human), UniProt P07339); assay: Human Cathepsin D FRET Assay; type: biochemical; settings: selectivity with respect to Cathepsin D vs BACE1
CYP2D6 = CYP2D6 (Homo sapiens (Human), UniProt P10635); assay: CYP Inhibition Assay, CYP2D6; type: in vitro ADME; settings: human liver microsomes
[3] = molecular target: BACE1 (Aβ40 in HEK293-APPswe/lon cells) (Homo sapiens (Human), UniProt P56817); assay: BACE Inhibitor Whole Cell IC50 Determination Using HEK293-APPswe/lon Cells (Aβ40); type: cell-based; settings: 4 hours
hERG [4] = molecular target: T1, hERG; assay: hERG screening, Rubidium Efflux (hERG-CHO cells); type: cell-based; settings: CHO cells expressing hERG; for inhibition at 30 min, 1.5 uG/mL: pH 7.4, 1.5 uG/mL, read-out: HERG Rb efflux % Inhib 1.5 uG/mL; for inhibition at 30 min, 5 uG/mL: pH 7.4, 5 uG/mL, read-out: HERG Rb efflux % Inhib 5 uG/mL
[5] = 30 min pre-incubation with NADPH, read-out: CYP 3A4 IC50 pre
[6] = co-incubation, read-out: CYP 3A4 IC50 co
[7] = 30 min pre-incubation with NADPH, read-out: CYP 2C9 IC50 pre
[8] = co-incubation, read-out: CYP 2C9 IC50 co
[9] = 30 min pre-incubation with NADPH, read-out: CYP 2D6 IC50 pre
[10] = co-incubation, read-out: CYP 2D6 IC50 co

T1 sequence (Q12809 whole entry): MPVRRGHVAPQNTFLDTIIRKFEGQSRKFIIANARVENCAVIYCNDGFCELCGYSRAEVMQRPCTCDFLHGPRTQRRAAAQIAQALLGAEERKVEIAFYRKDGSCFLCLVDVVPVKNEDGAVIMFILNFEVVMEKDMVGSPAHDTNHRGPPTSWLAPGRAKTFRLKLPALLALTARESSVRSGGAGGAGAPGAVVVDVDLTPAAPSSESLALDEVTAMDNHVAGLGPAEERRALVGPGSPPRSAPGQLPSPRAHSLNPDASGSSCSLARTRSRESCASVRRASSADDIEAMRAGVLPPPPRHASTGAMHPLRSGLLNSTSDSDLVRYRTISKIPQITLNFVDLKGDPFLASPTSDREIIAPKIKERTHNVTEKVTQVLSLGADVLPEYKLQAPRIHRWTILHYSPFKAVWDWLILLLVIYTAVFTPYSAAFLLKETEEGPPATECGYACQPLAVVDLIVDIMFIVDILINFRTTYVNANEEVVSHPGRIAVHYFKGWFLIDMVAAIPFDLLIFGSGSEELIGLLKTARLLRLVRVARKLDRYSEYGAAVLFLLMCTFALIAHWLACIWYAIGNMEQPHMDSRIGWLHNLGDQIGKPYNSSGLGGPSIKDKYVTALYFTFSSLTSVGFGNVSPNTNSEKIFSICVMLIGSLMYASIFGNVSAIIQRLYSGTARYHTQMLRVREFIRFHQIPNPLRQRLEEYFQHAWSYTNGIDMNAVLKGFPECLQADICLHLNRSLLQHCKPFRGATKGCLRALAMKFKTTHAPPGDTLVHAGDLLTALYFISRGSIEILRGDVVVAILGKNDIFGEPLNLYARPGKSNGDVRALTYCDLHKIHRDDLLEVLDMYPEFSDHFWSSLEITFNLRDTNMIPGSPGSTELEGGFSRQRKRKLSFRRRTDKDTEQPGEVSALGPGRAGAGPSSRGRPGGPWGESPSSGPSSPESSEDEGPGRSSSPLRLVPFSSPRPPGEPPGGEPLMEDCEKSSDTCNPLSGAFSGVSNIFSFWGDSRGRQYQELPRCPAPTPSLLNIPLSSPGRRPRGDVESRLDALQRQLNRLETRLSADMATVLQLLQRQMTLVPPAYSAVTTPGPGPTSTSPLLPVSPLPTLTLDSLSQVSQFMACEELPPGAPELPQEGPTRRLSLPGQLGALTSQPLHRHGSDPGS
CYP2D6, sequence (P10635 whole entry): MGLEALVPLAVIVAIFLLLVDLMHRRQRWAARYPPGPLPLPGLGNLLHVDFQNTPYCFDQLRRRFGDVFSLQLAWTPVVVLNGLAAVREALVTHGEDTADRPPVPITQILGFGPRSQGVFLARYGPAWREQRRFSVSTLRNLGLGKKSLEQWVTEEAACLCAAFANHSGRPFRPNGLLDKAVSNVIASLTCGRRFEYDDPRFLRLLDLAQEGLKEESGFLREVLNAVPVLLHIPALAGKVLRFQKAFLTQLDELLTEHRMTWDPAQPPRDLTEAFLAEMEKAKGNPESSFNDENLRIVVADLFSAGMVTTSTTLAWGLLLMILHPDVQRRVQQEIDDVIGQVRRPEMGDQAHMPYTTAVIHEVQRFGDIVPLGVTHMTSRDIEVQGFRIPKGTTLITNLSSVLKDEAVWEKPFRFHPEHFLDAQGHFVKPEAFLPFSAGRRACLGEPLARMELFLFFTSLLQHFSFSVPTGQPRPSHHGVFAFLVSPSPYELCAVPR
human liver Cathepsin D, sequence (P07339 65-412): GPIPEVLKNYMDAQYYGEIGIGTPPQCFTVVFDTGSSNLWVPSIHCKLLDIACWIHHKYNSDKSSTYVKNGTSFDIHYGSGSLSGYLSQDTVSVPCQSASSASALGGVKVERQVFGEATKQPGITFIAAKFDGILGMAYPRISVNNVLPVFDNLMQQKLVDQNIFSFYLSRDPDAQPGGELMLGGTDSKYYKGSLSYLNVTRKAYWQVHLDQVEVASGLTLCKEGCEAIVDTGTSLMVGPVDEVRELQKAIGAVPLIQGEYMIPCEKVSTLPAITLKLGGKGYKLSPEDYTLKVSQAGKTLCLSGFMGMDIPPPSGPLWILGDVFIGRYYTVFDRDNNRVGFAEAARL
human liver Cathepsin D, sequence (P07339 169-412): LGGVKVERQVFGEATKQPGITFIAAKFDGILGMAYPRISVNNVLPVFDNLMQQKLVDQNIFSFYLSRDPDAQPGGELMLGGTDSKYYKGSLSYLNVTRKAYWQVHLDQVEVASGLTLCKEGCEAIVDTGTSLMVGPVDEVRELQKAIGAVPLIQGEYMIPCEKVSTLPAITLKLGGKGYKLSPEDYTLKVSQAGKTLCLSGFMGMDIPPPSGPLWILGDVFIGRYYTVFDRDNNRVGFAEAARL
CYP2C9, sequence (P11712 whole entry): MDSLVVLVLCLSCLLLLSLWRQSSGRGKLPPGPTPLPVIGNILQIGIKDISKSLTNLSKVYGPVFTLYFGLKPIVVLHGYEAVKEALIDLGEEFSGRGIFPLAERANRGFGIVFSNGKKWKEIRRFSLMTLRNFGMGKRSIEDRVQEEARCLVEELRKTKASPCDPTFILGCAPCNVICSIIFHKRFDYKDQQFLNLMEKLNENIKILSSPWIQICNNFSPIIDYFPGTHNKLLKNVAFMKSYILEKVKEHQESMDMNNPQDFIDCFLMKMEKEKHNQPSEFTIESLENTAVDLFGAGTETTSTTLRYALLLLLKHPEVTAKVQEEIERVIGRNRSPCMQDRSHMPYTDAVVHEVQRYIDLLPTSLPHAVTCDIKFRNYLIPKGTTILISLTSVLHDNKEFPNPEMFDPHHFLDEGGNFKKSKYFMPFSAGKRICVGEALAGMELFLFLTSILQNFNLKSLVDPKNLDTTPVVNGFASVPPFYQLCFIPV
soluble human BACE1 catalytic domain, sequence (P56817 75-416): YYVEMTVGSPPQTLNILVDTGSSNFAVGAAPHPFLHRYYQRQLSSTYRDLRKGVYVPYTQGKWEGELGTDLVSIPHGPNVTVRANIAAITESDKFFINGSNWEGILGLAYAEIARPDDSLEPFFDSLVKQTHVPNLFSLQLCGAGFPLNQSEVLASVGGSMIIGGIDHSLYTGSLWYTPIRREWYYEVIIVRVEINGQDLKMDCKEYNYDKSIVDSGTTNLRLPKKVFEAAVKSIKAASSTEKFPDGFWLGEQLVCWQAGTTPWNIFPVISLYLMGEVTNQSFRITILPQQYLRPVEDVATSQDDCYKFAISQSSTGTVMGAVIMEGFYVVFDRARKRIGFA
BACE1 (Aβ40 in HEK293-APPswe/lon cells), sequence (P56817 46-501): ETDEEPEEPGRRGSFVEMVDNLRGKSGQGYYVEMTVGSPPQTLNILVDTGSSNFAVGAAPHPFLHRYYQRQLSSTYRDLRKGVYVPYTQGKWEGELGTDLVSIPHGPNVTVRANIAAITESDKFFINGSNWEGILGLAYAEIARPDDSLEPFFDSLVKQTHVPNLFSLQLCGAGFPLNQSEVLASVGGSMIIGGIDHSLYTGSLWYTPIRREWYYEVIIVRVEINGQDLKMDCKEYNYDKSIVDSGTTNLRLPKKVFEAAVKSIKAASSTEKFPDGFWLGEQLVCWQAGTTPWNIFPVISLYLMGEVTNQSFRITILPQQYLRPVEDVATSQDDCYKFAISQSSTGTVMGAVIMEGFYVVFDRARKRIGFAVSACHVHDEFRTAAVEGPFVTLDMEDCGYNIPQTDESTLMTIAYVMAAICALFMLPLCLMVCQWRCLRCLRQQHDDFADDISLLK
CYP3A4, sequence (P08684 whole entry, the tested form may be a part): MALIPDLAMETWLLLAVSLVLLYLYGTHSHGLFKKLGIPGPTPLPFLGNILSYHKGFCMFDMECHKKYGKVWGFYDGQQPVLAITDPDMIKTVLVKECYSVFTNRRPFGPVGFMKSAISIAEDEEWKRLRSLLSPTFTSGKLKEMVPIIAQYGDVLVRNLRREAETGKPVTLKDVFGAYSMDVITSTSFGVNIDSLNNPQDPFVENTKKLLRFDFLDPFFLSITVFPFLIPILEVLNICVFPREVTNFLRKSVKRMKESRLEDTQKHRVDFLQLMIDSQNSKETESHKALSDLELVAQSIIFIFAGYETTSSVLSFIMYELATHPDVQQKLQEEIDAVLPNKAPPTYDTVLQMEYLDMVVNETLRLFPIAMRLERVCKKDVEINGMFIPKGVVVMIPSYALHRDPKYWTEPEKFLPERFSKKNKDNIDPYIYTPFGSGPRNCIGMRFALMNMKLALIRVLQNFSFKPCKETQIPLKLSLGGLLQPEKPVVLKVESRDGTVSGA

## COc1nc(N2C[C@H]3C(=O)N(C)C(=N)N[C@@]3(c3cc(F)ccc3F)C2)nc(C2CC2)c1F [Example 34]
CYP3A4; [5]
  IC50: > 20 µM
CYP3A4; [6]
  IC50: > 20 µM
[1]
  Ki: 0.0056 µM
hERG [2]
  inhibition at 5 min, 1 uM: 7%
  inhibition at 5 min, 10 uM: 65%
CYP2C9; [7]
  IC50: > 20 µM
CYP2C9; [8]
  IC50: > 20 µM
Human liver Cathepsin D
  CathD Selectivity: 88
CYP2D6; [9]
  IC50: > 20 µM
CYP2D6; [10]
  IC50: > 20 µM
[3]
  IC50: 0.086 µM

## COc1nc(N2C[C@H]3C(=O)N(C)C(=N)N[C@@]3(c3ccc(F)cc3F)C2)nc(OC)c1F [Example 10]
CYP3A4; [5]
  IC50: > 30 µM
CYP3A4; [6]
  IC50: > 30 µM
[1]
  Ki: 0.0018 µM
hERG [2]
  inhibition at 5 min, 1 uM: 7%
  inhibition at 5 min, 10 uM: 74%
CYP2C9; [7]
  IC50: > 30 µM
CYP2C9; [8]
  IC50: > 30 µM
Human liver Cathepsin D
  CathD Selectivity: 583
CYP2D6; [9]
  IC50: > 30 µM
CYP2D6; [10]
  IC50: ~30 µM
[3]
  IC50: 0.0075 µM

## COc1nc(N2C[C@H]3C(=O)N(C)C(=N)N[C@@]3(c3ccc(F)c(Cl)c3F)C2)nc(C)c1F (racemic) [39 racemic]
CYP3A4; [5]
  IC50: > 20 µM
CYP3A4; [6]
  IC50: > 20 µM
[1]
  Ki: 0.0092 µM
hERG [2]
  inhibition at 5 min, 1 uM: 3%
  inhibition at 5 min, 10 uM: 61%
CYP2C9; [7]
  IC50: > 20 µM
CYP2C9; [8]
  IC50: > 20 µM
Human liver Cathepsin D
  CathD Selectivity: 221
CYP2D6; [9]
  IC50: > 20 µM
CYP2D6; [10]
  IC50: > 20 µM
[3]
  IC50: 0.04 µM

## Cc1nc(N2C[C@H]3C(=O)N(C)C(=N)N[C@@]3(c3ccc(F)cc3)C2)nc(C)c1F [Example 28]
CYP3A4; [5]
  IC50: > 30 µM
CYP3A4; [6]
  IC50: > 30 µM
[1]
  Ki: 0.064 µM
CYP2C9; [7]
  IC50: > 30 µM
CYP2C9; [8]
  IC50: > 30 µM
CYP2D6; [9]
  IC50: ~30 µM
CYP2D6; [10]
  IC50: 23.3 µM
hERG [4]
  inhibition at 30 min, 1.5 uG/mL: 13%
  inhibition at 30 min, 5 uG/mL: 14%
[3]
  IC50: 0.114 µM

## COc1nc(N2C[C@H]3C(=O)N(C)C(=N)N[C@@]3(c3ccc(F)cc3)C2)nc(C2CC2)c1F [Example 21]
CYP3A4; [5]
  IC50: > 20 µM
CYP3A4; [6]
  IC50: > 20 µM
[1]
  Ki: 0.0048 µM
hERG [2]
  inhibition at 5 min, 1 uM: 7%
  inhibition at 5 min, 10 uM: 73%
CYP2C9; [7]
  IC50: > 20 µM
CYP2C9; [8]
  IC50: > 20 µM
Human liver Cathepsin D
  CathD Selectivity: 50
CYP2D6; [9]
  IC50: 10.1 µM
CYP2D6; [10]
  IC50: 13.7 µM
[3]
  IC50: 0.05 µM

## CCc1nc(N2C[C@H]3C(=O)N(C)C(=N)N[C@@]3(c3ccc(F)cc3F)C2)nc(OC)c1F [Example 32]
CYP3A4; [5]
  IC50: > 20 µM
CYP3A4; [6]
  IC50: > 20 µM
[1]
  Ki: 0.0053 µM
hERG [2]
  inhibition at 5 min, 1 uM: 19%
  inhibition at 5 min, 10 uM: 95%
CYP2C9; [7]
  IC50: > 20 µM
CYP2C9; [8]
  IC50: > 20 µM
Human liver Cathepsin D
  CathD Selectivity: 310
CYP2D6; [9]
  IC50: > 20 µM
CYP2D6; [10]
  IC50: > 20 µM
[3]
  IC50: 0.026 µM

## COc1nc(N2C[C@H]3C(=O)N(C)C(=N)N[C@@]3(c3cc(F)ccc3F)C2)nc(C2CC2)c1Cl [Example 35]
CYP3A4; [5]
  IC50: ~20 µM
CYP3A4; [6]
  IC50: > 20 µM
[1]
  Ki: 0.0065 µM
hERG [2]
  inhibition at 5 min, 1 uM: 5%
  inhibition at 5 min, 10 uM: 23%
CYP2C9; [7]
  IC50: ~20 µM
CYP2C9; [8]
  IC50: ~20 µM
Human liver Cathepsin D
  CathD Selectivity: 634
CYP2D6; [9]
  IC50: > 20 µM
CYP2D6; [10]
  IC50: > 20 µM
[3]
  IC50: 0.09 µM

## COc1nc(N2C[C@H]3C(=O)N(C)C(N)=N[C@@]3(c3c(F)cc(F)c(F)c3F)C2)nc(C)c1F [Example 29]
CYP2C9; [7]
  IC50: > 30 µM
CYP2C9; [8]
  IC50: > 30 µM
CYP2D6; [9]
  IC50: > 30 µM
CYP2D6; [10]
  IC50: > 30 µM
hERG [4]
  inhibition at 30 min, 1.5 uG/mL: -4%
  inhibition at 30 min, 5 uG/mL: 3%

## COc1nc(N2C[C@H]3C(=O)N(C)C(=N)N[C@@]3(c3cccc(C#N)c3)C2)nc(C)c1F [Example 36]
CYP3A4; [5]
  IC50: > 20 µM
CYP3A4; [6]
  IC50: > 20 µM
[1]
  Ki: 0.014 µM
hERG [2]
  inhibition at 5 min, 1 uM: 3%
  inhibition at 5 min, 10 uM: 37%
CYP2C9; [7]
  IC50: > 20 µM
CYP2C9; [8]
  IC50: > 20 µM
Human liver Cathepsin D
  CathD Selectivity: 1202
CYP2D6; [9]
  IC50: > 20 µM
CYP2D6; [10]
  IC50: > 20 µM
[3]
  IC50: 0.063 µM

## COc1nc(N2C[C@H]3C(=O)N(C)C(=N)N[C@@]3(c3ccc(F)cc3)C2)nc(OC)c1F [Example 27]
CYP3A4; [5]
  IC50: 4.2 µM
CYP3A4; [6]
  IC50: > 30 µM
[1]
  Ki: 0.0044 µM
hERG [2]
  inhibition at 5 min, 1 uM: 2%
  inhibition at 5 min, 10 uM: 51%
CYP2C9; [7]
  IC50: > 30 µM
CYP2C9; [8]
  IC50: > 30 µM
Human liver Cathepsin D
  CathD Selectivity: 1063
CYP2D6; [9]
  IC50: ~30 µM
CYP2D6; [10]
  IC50: 14.7 µM
[3]
  IC50: 0.0615 µM

## CCc1nc(N2C[C@H]3C(=O)N(C)C(=N)N[C@@]3(c3ccc(F)cc3)C2)nc(OC)c1F [Example 30]
CYP3A4; [5]
  IC50: > 30 µM
CYP3A4; [6]
  IC50: > 30 µM
[1]
  Ki: 0.0061 µM
hERG [2]
  inhibition at 5 min, 1 uM: 2%
  inhibition at 5 min, 10 uM: 31%
CYP2C9; [7]
  IC50: > 30 µM
CYP2C9; [8]
  IC50: > 30 µM
Human liver Cathepsin D
  CathD Selectivity: 163
CYP2D6; [9]
  IC50: > 30 µM
CYP2D6; [10]
  IC50: > 30 µM
[3]
  IC50: 0.022 µM

## COc1nc(N2C[C@H]3C(=O)N(C)C(=N)N[C@@]3(c3ccc(F)cc3F)C2)nc(CO)c1F [Example 43]
CYP3A4; [5]
  IC50: > 20 µM
CYP3A4; [6]
  IC50: > 20 µM
[1]
  Ki: 0.016 µM
hERG [2]
  inhibition at 5 min, 1 uM: 6%
  inhibition at 5 min, 10 uM: 27%
CYP2C9; [7]
  IC50: > 20 µM
CYP2C9; [8]
  IC50: > 20 µM
Human liver Cathepsin D
  CathD Selectivity: 116
CYP2D6; [9]
  IC50: > 20 µM
CYP2D6; [10]
  IC50: > 20 µM
[3]
  IC50: 0.021 µM

## CCc1nc(N2C[C@H]3C(=O)N(C)C(=N)N[C@@]3(c3cc(F)c(F)cc3F)C2)nc(OC)c1F [Example 22]
CYP3A4; [5]
  IC50: > 20 µM
CYP3A4; [6]
  IC50: > 20 µM
[1]
  Ki: 0.0056 µM
hERG [2]
  inhibition at 5 min, 1 uM: 35%
  inhibition at 5 min, 10 uM: 96%
CYP2C9; [7]
  IC50: > 20 µM
CYP2C9; [8]
  IC50: ~20 µM
Human liver Cathepsin D
  CathD Selectivity: 53
CYP2D6; [9]
  IC50: > 20 µM
CYP2D6; [10]
  IC50: > 20 µM
[3]
  IC50: 0.018 µM

## COc1nc(N2C[C@H]3C(=O)N(C)C(=N)N[C@@]3(c3ccc(F)cc3F)C2)nc(C2CC2)c1F [Example 38]
CYP3A4; [5]
  IC50: > 20 µM
CYP3A4; [6]
  IC50: > 20 µM
[1]
  Ki: 0.0027 µM
hERG [2]
  inhibition at 5 min, 1 uM: 12%
  inhibition at 5 min, 10 uM: 63%
CYP2C9; [7]
  IC50: > 20 µM
CYP2C9; [8]
  IC50: > 20 µM
Human liver Cathepsin D
  CathD Selectivity: 209
CYP2D6; [9]
  IC50: > 20 µM
CYP2D6; [10]
  IC50: > 20 µM
[3]
  IC50: 0.031 µM

## COc1nc(N2C[C@H]3C(=O)N(C)C(=N)N[C@@]3(c3ccc(F)cc3F)C2)nc(C2CC2)c1Cl [Example 19]
CYP3A4; [5]
  IC50: > 20 µM
CYP3A4; [6]
  IC50: > 20 µM
[1]
  Ki: 0.0068 µM
hERG [2]
  inhibition at 5 min, 1 uM: 3%
  inhibition at 5 min, 10 uM: 20%
CYP2C9; [7]
  IC50: > 20 µM
CYP2C9; [8]
  IC50: > 20 µM
Human liver Cathepsin D
  CathD Selectivity: 236
CYP2D6; [9]
  IC50: > 20 µM
CYP2D6; [10]
  IC50: > 20 µM
[3]
  IC50: 0.117 µM
